# Legend:
# Format in all cases: functional
# [1] = system: Escherichia coli; assay: Antibacterial activity against ESBL producing Escherichia coli assessed as reduction in microbial growth by broth microdilution method
# [2] = system: Enterococcus faecalis; assay: Antibacterial activity against Enterococcus faecalis assessed as reduction in microbial growth by broth microdilution method
# [3] = system: Staphylococcus aureus; assay: Antibacterial activity against methicillin-resistant Staphylococcus aureus assessed as reduction in microbial growth by broth microdilution method
Structure (SMILES),MIC [1],MIC [2],MIC [3]
C[C@H]1[C@@H]2O[C@@H]2C(=O)[C@]2(C)CC[C@H]3[C@H]4[C@](C)(CC[C@]4(C)C(=O)O)C[C@]132,32 mg/L,32 mg/L,4 mg/L
C[C@H]1C=CC(=O)[C@]2(C)CC[C@H]3[C@@H]4C(CO)(CO)CC[C@]4(C)C[C@]132,32 mg/L,32 mg/L,2 mg/L

# Reference: ChEMBL document CHEMBL4699584, “Bioassay-Directed Isolation of Antibacterial Metabolites from an Arthropod-Derived Penicillium chrysogenum” (2020)
